Reference: US5728563A, “Cyclic nucleotide phosphodiesterase and a method for production thereof” (Taisho Pharmaceutical Co., Ltd., priority 1993, dated 1998)
“Also recorded” adds a separate entry of the source.

Tests used:
Type in all cases: biochemical
[1] = test system: cyclic nucleotide phosphodiesterase (the enzyme of the present invention) isolated from rat cerebral cortex; experiment: Effect of metal ions on the enzymatic activity
Experimental: (§1) The mixture is reacted at 30° C. Ten minutes after, the reaction mixture is put in a heat bath of 100° C. to terminate the reaction in 5 minutes. That is, the enzyme of the present invention is inactivated by heating at 100° C. A test tube charged with the reaction mixture is then ice-cooled. Next, 50 μg of snake venom, which contains 5'-nucleotidase, is added to and reacted with the reaction mixture at 30° C. for 10 minutes. […] 5'-AMP, which is then with 5'-nucleotidase in snake venom to form [8-^3 H] adenosine. After 4 ml of water is added to this reaction mixture, the mixture is adsorbed onto a column packed with cation exchange resin (AG50 WX4, Bio-Rad). After thoroughly rinsing, the reaction product [8-^3 H] adenosine is eluted with 1.5 ml 3N NH4 OH. The radioactivity of the eluted [8-^3 H] adenosine is measured to determine the enzymatic activity of the present invention.

[2] = molecular target: cyclic nucleotide phosphodiesterase (the enzyme of the present invention) isolated from rat cerebral cortex; experiment: Effects of inhibitors on the enzymatic activity (two-step assay, cAMP hydrolysis); conditions: for IC50: enzymatic activity in the absence of inhibitor made 100%; for inhibition compared to PDEI, PDEIII or PDEIV: comparison with the known isozyme that the inhibitor acts on
Experimental: The activity of the enzyme of the present invention was determined by the two-step assay (Masuoka et al., Biochem. Biophys. Res. Commun., 169, 315-322, 1990).
Using various inhibitors which are known to inhibit the activity of PDEI, III or IV, the enzymatic activity of the enzyme of the present invention was measured by varying the concentration of these inhibitors.
as §1
The enzymatic activity of the enzyme of the present invention was measured by varying the concentrations of various inhibitors. […] In more detail, during the reaction with the enzyme of the present invention in assaying for the enzymatic activity described in Example, an inhibitor having various concentrations was further added to the reaction mixture to determine the enzymatic activity.

[3] = test system: cyclic nucleotide phosphodiesterase (the enzyme of the present invention) isolated from rat cerebral cortex; experiment: Substrate specificity, Km by double reciprocal plots; conditions: substrate varied 0.06 μM to 100 μM
[4] = test system: cyclic nucleotide phosphodiesterase (the enzyme of the present invention) isolated from rat cerebral cortex; experiment: Effect of activators (calcium-calmodulin, cGMP) on cAMP hydrolysis; conditions: 0.4 μg/ml calmodulin plus 0.2 mM calcium chloride versus 2 mM EGTA; or 10 μM cGMP
Experimental: Effects on the enzyme of the present invention were analyzed by adding 0.4 μg/ml calmodulin purified from bovine brain and 0.2 mM calcium chloride.
The mixture is reacted at 30° C. Ten minutes after, the reaction mixture is put in a heat bath of 100° C. to terminate the reaction in 5 minutes. That is, the enzyme of the present invention is inactivated by heating at 100° C. A test tube charged with the reaction mixture is then ice-cooled. Next, 50 μg of snake venom, which contains 5'-nucleotidase, is added to and reacted with the reaction mixture at 30° C. for 10 minutes. […] After 4 ml of water is added to this reaction mixture, the mixture is adsorbed onto a column packed with cation exchange resin (AG50 WX4, Bio-Rad). After thoroughly rinsing, the reaction product [8-^3 H] adenosine is eluted with 1.5 ml 3N NH4 OH. The radioactivity of the eluted [8-^3 H] adenosine is measured to determine the enzymatic activity of the present invention.

| SMILES | effect as metal cation / cofactor for the enzymatic reaction [1] | IC50 [2] [µM] | inhibition compared to PDEI, PDEIII or PDEIV [2] | further results |
| --- | --- | --- | --- | --- |
| [Ba+2] [Ba^2+] | no ability as a cofactor |  |  |  |
| [Ca+2] [Ca^2+] | no ability as a cofactor |  |  |  |
| [Co+2] [Co^2+] |  |  |  | concentrations with inhibitory effect [1]: above 100 μM; concentrations with stimulatory effect [1]: less than 100 μM |
| [Cu+2] [Cu^2+] | no ability as a cofactor |  |  |  |
| CC(C)Cn1c(=O)n(C)c(=O)c2[nH]cnc21 [IBMX, 3-isobutyl-1-methylxanthine] |  | 26.5 ± 2.5 |  |  |
| [Cl-].[Cl-].[Mg+2] [Magnesium, magnesium chloride] | most efficient metal cation |  |  | concentration at which the enzyme was activated [1]: 1 µM; concentration at which the maximum effect/activity was observed [1]: over 5 mM |
| [Mn+2] [Manganese] | relatively stimulatory effect |  |  |  |
| [Ni+2] [Ni^2+] | no ability as a cofactor |  |  |  |
| CCCCOc1cc(CC2CNC(=O)N2)ccc1OC (centres unmarked) [Ro20-1724, 4-(3-buthoxy-4-methoxybenzyl)-2-imidazolidinone] |  | > 300 | less inhibited |  |
| CC(=O)Nc1ccc(-c2c[nH]c(=O)cn2)cc1 [SK&F94120, 5-(4-acetamidophenyl)pyrazin-1H-one] |  | > 300 | not inhibited |  |
| [Zn+2] [Zn^2+] | no ability as a cofactor |  |  |  |
| Nc1nc2c(ncn2[C@@H]2O[C@@H]3COP(=O)(O)O[C@H]3[C@H]2O)c(=O)[nH]1 [cGMP, cyclic guanosine 3',5'-monophosphate] |  |  |  | Km [3]: 1.78 µM; activation of the enzyme / sensitivity of the enzymatic activity [4]: insensitive; also recorded: not activated |
| O=C1CCc2cc(OCCCCc3nnnn3C3CCCCC3)ccc2N1 [cilostazol] |  | > 300 | not inhibited |  |
| COC(=O)C1=C(C)NC(C)=C(C(=O)OCCN(C)Cc2ccccc2)C1c1cccc([N+](=O)[O-])c1 (centres unmarked) [nicardipine] |  | > 300 | less inhibited | IC50 ([2]; unit inferred): > 300 µM |
| COc1ccc(Cc2nccc3cc(OC)c(OC)cc23)cc1OC [papaverine] |  |  |  | Ki ([2]; Dixon plots, varying cAMP and papaverine concentrations, read-out: inhibition constant (Ki value)): 0.036 µM |
| COc1ccc(C2CNC(=O)C2)cc1OC1CCCC1 (centres unmarked) [rolipram] |  | > 300 | less inhibited |  |
